Results taken from US20120220537A1, “9-AMINOACRIDINE DERIVATIVES, THEIR PREPARATION AND USES” (ARIEL-UNIVERSITY RESEARCH AND DEVELOPMENT COMPANY LTD., priority 2009, published 2012).
“Also recorded” adds a separate entry of the source. Read-outs that look alike come from different tables or passages of the source.

Legend:
Format in all cases: cell-based
[1] = tested on: MDM-MD-A31 (renal cancer); experiment: In vitro cytotoxicity, neutral red uptake; details: MDM-MD-A31 cells, 24 h treatment, read-out: anticancer activity (IC50) MDM-MD-A31
Description: (§1) Cells (250000/well) were cultured in 24-well plates for 24 h to 70-80% confluence or cells (20000/well) were cultured in 96-well plates for 24 h or overnight to 70-80% confluence. Four 24-well plates and one 96-well plate have been seeded. The following concentrations of the compounds were examined (each one in triplicate)-0 microgram/μl, 0.05 microgram/ml, 0.5 microgram/ml, 5 microgram/ml, 50 microgram/ml. The volume of wells in 24-well plates was 0.5 ml while that of 96-well plates was 0.1 ml. After the 24 h treatment the culture medium in the wells were replaced with 0.5 ml fresh medium containing 1:100 dilution of neutral red (10 microliters/1 ml). The plates were incubated for 2 h in a dark in culture incubator. The medium was aspirated and the cells washed twice with 0.5/0.1 ml of solution containing 1% CaCl2 and 0.5% formaldehyde. The dye was extracted from cells upon addition of 0.5/0.1 ml 1% glacial acetic acid in 50% ethanol with 10 min incubation at room temperature. The absorbance was measured spectrophotometrically at a wavelength of 540 nm. The background absorbance measurement of the multiwell plates was done at 690 nm and subtract from 540 nm.

HT29 (colon carcinoma) = experiment: In vitro cytotoxicity, neutral red uptake; details: 24 h treatment, read-out: anticancer activity (IC50) HT29
Description: as §1

OVCAR8 (ovarian cancer) = experiment: In vitro cytotoxicity, neutral red uptake; details: 24 h treatment, read-out: anticancer activity (IC50) OVCAR8
Description: as §1

[2] = tested on: NCI-ADR (associated with multidrug resistance (MDR) phenomena ovarian cancer); experiment: In vitro cytotoxicity, neutral red uptake; details: NCIADR cells, 24 h treatment, read-out: anticancer activity (IC50) NCIADR
Description: as §1

H1299 (lung carcinoma) = experiment: In vitro cytotoxicity, neutral red uptake; details: 24 h treatment, read-out: anticancer activity (IC50) H1299
Description: as §1

[3] = tested on: MCF-7mito (mitoxantrone selected and associated with MDR phenomena breast cancer); experiment: In vitro cytotoxicity, neutral red uptake; details: read-out: anticancer activity (IC50) MCF7 mito
Description: as §1

MCF-7 (breast cancer) = experiment: In vitro cytotoxicity, neutral red uptake; details: MCF7 wt cells, 24 h treatment, read-out: anticancer activity (IC50) MCF7 wt
Description: as §1

[4] = tested on: cancer cell lines MDM-MD-A31, MCF-7, HT29, OVCAR8, NCI-ADR, MCF-7mito and H1299; experiment: In vitro cytotoxicity, all tested cancer cell lines; details: statement in words
Description: as §1

[5] = Homo sapiens, HT-29, HT29 cells
[6] = Homo sapiens, OVCAR-8, OVCAR8 cells
[7] = Homo sapiens, NCI-H1299, H1299 cells
[8] = Homo sapiens, MCF7 mito cells, 24 h treatment, neutral red

## Nc1c2ccccc2nc2ccccc12 [9-aminoacridine]
[1]
  IC50: 1.5 µM
HT29 (colon carcinoma); [5]
  IC50: 2.25 µM
OVCAR8 (ovarian cancer); [6]
  IC50: 1.7 µM
[2]; Homo sapiens, NCI/ADR-RES
  IC50: 21 µM
H1299 (lung carcinoma); [7]
  IC50: 32.8 µM
[3]; [8]
  IC50: 163 µM
MCF-7 (breast cancer); Homo sapiens
  IC50: 11.2 µM

## O=C(O)c1ccccc1CNc1c2ccccc2nc2ccccc12 [Compound 1, 2-(acridin-9-ylaminomethyl)benzoic acid]
[4]
  cytotoxicity compared with reference or other tested compounds: more cytotoxic than the corresponding 9-aminoacridine
[1]
  IC50: 10.3 µM
HT29 (colon carcinoma); [5]
  IC50: 1.2 µM
OVCAR8 (ovarian cancer); [6]
  IC50: 0.71 µM
[2]; Homo sapiens, NCI/ADR-RES
  IC50: 12.2 µM
H1299 (lung carcinoma); [7]
  IC50: 74.3 µM
[3]; [8]
  IC50: 0.76 µM
MCF-7 (breast cancer); Homo sapiens
  IC50: 20.2 µM

## O=[N+]([O-])c1ccc(O)cc1CNc1c2ccccc2nc2ccccc12 [Compound 4, N-(2-nitro-5-hydroxy-benzyl)acridin-9-amine]
[1]
  IC50: 75.6 µM
HT29 (colon carcinoma); [5]
  IC50: 7.14 µM
OVCAR8 (ovarian cancer); [6]
  IC50: 15.4 µM
[2]; Homo sapiens, NCI/ADR-RES
  IC50: 86.4 µM
H1299 (lung carcinoma); [7]
  IC50: > 100 µM
[3]; [8]
  IC50: 18.4 µM
MCF-7 (breast cancer); Homo sapiens
  IC50: 58.6 µM

## Oc1ccc2ccccc2c1CNc1c2ccccc2nc2ccccc12 [Compound 8, N-(2-hydroxy-naphthylmethyl)acridin-9-amine]
[1]
  IC50: 13.2 µM
HT29 (colon carcinoma); [5]
  IC50: 2.6 µM
OVCAR8 (ovarian cancer); [6]
  IC50: 9.1 µM
[2]; Homo sapiens, NCI/ADR-RES
  IC50: 42.3 µM
H1299 (lung carcinoma); [7]
  IC50: 62.6 µM
[3]; [8]
  IC50: 1.8 µM
MCF-7 (breast cancer); Homo sapiens
  IC50: 14.1 µM

## O=[N+]([O-])c1ccccc1Nc1c2ccccc2nc2ccccc12 [Compound 10, N-(2-nitrophenyl)acridin-9-amine]
[1]
  IC50: > 100 µM
HT29 (colon carcinoma); [5]
  IC50: 74.2 µM
OVCAR8 (ovarian cancer); [6]
  IC50: > 100 µM
[2]; Homo sapiens, NCI/ADR-RES
  IC50: 40.3 µM
H1299 (lung carcinoma); [7]
  IC50: > 100 µM
[3]; [8]
  IC50: 46.7 µM
MCF-7 (breast cancer); Homo sapiens
  IC50: > 100 µM

## O=[N+]([O-])c1ccc(Nc2c3ccccc3nc3ccccc23)c([N+](=O)[O-])c1 [Compound 12, N-(2,4-dinitrophenyl)acridin-9-amine]
[1]
  IC50: > 100 µM
HT29 (colon carcinoma); [5]
  IC50: 71.3 µM
OVCAR8 (ovarian cancer); [6]
  IC50: 33.8 µM
[2]; Homo sapiens, NCI/ADR-RES
  IC50: 15.4 µM
H1299 (lung carcinoma); [7]
  IC50: > 100 µM
[3]; Homo sapiens, MCF7, 24 h
  IC50: 7.2 µM
MCF-7 (breast cancer); Homo sapiens
  IC50: 89.1 µM

## O=C(O)c1ccc(Nc2c3ccccc3nc3ccccc23)c([N+](=O)[O-])c1 [Compound 13, 4-(acridin-9-ylamino)-3-nitrobenzoic acid]
[4]
  cytotoxicity compared with reference or other tested compounds: more cytotoxic than the corresponding 9-aminoacridine
[1]
  IC50: 0.6 µM
HT29 (colon carcinoma); [5]
  IC50: 3.6 µM
OVCAR8 (ovarian cancer); [6]
  IC50: 6.5 µM
[2]; Homo sapiens, NCI/ADR-RES
  IC50: 54.2 µM
H1299 (lung carcinoma); [7]
  IC50: 86.4 µM
[3]; [8]
  IC50: 7.2 µM
MCF-7 (breast cancer); Homo sapiens
  IC50: 11.6 µM

## NC(=O)c1ccc(Nc2c3ccccc3nc3ccccc23)c([N+](=O)[O-])c1 [Compound 14, 4-(acridin-9-ylamino)-3-nitrobenzamide]
[1]
  IC50: 0.6 µM
HT29 (colon carcinoma); [5]
  IC50: 3.6 µM
[3]; [8]
  IC50: 7.2 µM

## O=[N+]([O-])c1cc([N+](=O)[O-])c(Nc2c3ccccc3nc3ccccc23)cc1F [Compound 18, N-(2,4-dinitro-5-fluorophenyl)acridin-9-amine]
[1]
  IC50: 0.3 µM

## COc1cc([N+](=O)[O-])ccc1Nc1c2ccccc2nc2ccccc12 [Compound 20, N-(2-methoxy-4-nitrophenyl)acridin-9-amine]
[1]
  IC50: 0.1 µM
HT29 (colon carcinoma); [5]
  IC50: 1.2 µM
OVCAR8 (ovarian cancer); [6]
  IC50: 0.6 µM

## O=[N+]([O-])c1cccnc1Nc1c2ccccc2nc2ccccc12 [Compound 21, N-(3-nitropyrid-2-yl)acridin-9-amine]
[1]
  IC50: 0.8 µM
H1299 (lung carcinoma); [7]
  IC50: 0.7 µM
[3]; [8]
  IC50: 1.6 µM

## O=C1C(Br)=C(Br)C(=O)C(Nc2c3ccccc3nc3ccccc23)=C1Br [Compound 38, 2-(acridin-9-ylamino)-3,5,6-tribromobenzoquinone]
OVCAR8 (ovarian cancer); [6]
  IC50: 3.7 µM

## O=C1C(Cl)=C(Nc2c3ccccc3nc3ccccc23)C(=O)c2ccccc21 [Compound 39, 2-(acridin-9-ylamino)-3-chloronaphthoquinone]
[1]
  IC50: 0.15 µM
OVCAR8 (ovarian cancer); [6]
  IC50: 1.2 µM
[3]; [8]
  IC50: 0.8 µM

## CCOC1=C(Nc2c3ccccc3nc3ccccc23)C(=O)c2c(O)ccc(O)c2C1=O [Compound 41, 2-(acridin-9-ylamino)-3-ethoxy-5,8-dihydroxy-naphthoquinone]
[4]
  cytotoxicity compared with reference or other tested compounds: greater activity against all above mentioned cell lines than the anticancer drug amsacrine; also recorded: the most potent among the tested compounds
[1]
  IC50: 0.06 µM
HT29 (colon carcinoma); [5]
  IC50: 1.1 µM
H1299 (lung carcinoma); [7]
  IC50: 0.14 µM
[3]; [8]
  IC50: 0.5 µM

## O=C(NC(CO)C(=O)O)c1ccc(Nc2c3ccccc3nc3ccccc23)c([N+](=O)[O-])c1 (stereo not drawn) [Compound 42, (2-(4-(acridin-9-ylamino)-3-nitrobenzamido)-3-hydroxypropanoic acid)]
[1]
  IC50: 0.4 µM
HT29 (colon carcinoma); [5]
  IC50: 2.2 µM
[3]; [8]
  IC50: 4.5 µM

## NCCCCC(NC(=O)c1ccc(Nc2c3ccccc3nc3ccccc23)c([N+](=O)[O-])c1)C(N)=O (stereo not drawn) [Compound 46, 4-(acridin-9-ylamino)-N-(1,6-diamino-1-oxohex-2-yl)-3-nitro-benzamide]
[1]
  IC50: 75.6 µM
HT29 (colon carcinoma); [5]
  IC50: 7.14 µM
OVCAR8 (ovarian cancer); [6]
  IC50: 15.4 µM
[2]; Homo sapiens, NCI/ADR-RES
  IC50: 86.4 µM
H1299 (lung carcinoma); [7]
  IC50: > 100 µM
[3]; [8]
  IC50: 18.4 µM
MCF-7 (breast cancer); Homo sapiens
  IC50: 58.6 µM

## amsacrine [reference compound]
[1]
  IC50: 17.2 µM
HT29 (colon carcinoma); HT29 cells
  IC50: 2.2 µM
OVCAR8 (ovarian cancer); OVCAR8 cells
  IC50: 21.9 µM
[2]
  IC50: 16.1 µM
H1299 (lung carcinoma); H1299 cells
  IC50: 119 µM
[3]; MCF7 mito cells, 24 h treatment, neutral red
  IC50: 1.5 µM
MCF-7 (breast cancer)
  IC50: 19.8 µM
